Laboratory results: PMC10175561, “Two single-point mutations in Ankyrin Repeat one drastically change the threshold temperature of TRPV1” (Nature Communications, 2023)

Target: T1, axTRPV1 (Ambystoma mexicanum, UniProt A0A5K7X138)
T1 construct: gene TRPV1; full-length cDNA in pGEMHE, expressed in Xenopus oocytes; cloned in the authors' earlier work
T1 sequence (A0A5K7X138 1-858): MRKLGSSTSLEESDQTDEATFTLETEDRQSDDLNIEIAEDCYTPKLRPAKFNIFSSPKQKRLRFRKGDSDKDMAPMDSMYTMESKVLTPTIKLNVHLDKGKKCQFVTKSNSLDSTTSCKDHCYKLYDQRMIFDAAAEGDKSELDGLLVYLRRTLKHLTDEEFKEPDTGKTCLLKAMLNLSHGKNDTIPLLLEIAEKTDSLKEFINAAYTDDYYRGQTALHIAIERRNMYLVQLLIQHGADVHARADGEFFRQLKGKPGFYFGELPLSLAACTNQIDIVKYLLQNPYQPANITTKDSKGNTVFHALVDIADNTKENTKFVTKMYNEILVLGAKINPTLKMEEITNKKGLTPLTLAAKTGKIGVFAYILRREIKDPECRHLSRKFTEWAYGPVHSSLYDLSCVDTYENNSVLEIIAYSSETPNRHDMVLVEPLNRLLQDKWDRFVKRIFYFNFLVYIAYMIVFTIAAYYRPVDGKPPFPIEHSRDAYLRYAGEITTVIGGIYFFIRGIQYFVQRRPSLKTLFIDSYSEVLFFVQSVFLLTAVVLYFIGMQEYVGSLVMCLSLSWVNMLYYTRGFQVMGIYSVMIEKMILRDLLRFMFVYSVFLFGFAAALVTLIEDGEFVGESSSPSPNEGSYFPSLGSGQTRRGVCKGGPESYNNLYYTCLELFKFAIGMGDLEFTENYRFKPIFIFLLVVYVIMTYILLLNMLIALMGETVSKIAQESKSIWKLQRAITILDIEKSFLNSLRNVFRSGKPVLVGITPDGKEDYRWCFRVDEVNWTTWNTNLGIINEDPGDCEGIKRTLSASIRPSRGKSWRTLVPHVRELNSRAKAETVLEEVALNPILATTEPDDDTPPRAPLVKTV
Assay: two-electrode voltage clamp, Xenopus oocytes
Format: cell-based
Conditions: agonist, dose-dependent activation; current at -80 mV; bath pH 7.4

COc1cc(CNC(=O)CCCC/C=C/C(C)C)ccc1O [capsaicin]
two-electrode voltage clamp, Xenopus oocytes: Capsaicin and acid activated all TRPV1s in a dose-dependent manner
